Bounds are passed on as bounds.

One may read the IC50 as the concentration at which inhibition is half-maximal.

Format in all cases: biochemical
In one experiment the target is T1, HDAC4 (Homo sapiens, UniProt P56524).
T1 construct: made in house
As to the kind of experiment: HDAC4 fluorometric enzyme inhibition assay, purified recombinant enzyme, 10-point dose-response. As to conditions: Table 1; purified recombinant HDAC4 1 nM; mean of three independent experiments; >35 µM = weak inhibitor. The method, then: (§1) Therefore, the first stage of biological evaluation focused on determining inhibitory concentration (IC50) values of the squaric acid derivatives against HDAC8 and HDAC4 using purified recombinant enzymes. Enzymatic inhibition was quantified using 10‐point dose–response assays, from which IC50 values were calculated (Table 1). HDAC8 and HDAC4 were employed at concentrations of 10 nM and 1 nM, respectively, while other zinc‐dependent HDAC isoenzymes were used at approximate concentrations of ∼1 nM, reflecting the purity of the commercially available preparations. […]
(§2) 1.3.1 HDAC Assay General Inform ation
(§3) The activity of HDAC1, HDAC4, HDAC6, HDAC8, and HDAC11 was determined using a fluorometric assay in black half-area 96-well microplates (Greiner Bio -One , Germany). HDAC1 (#50051) and HDAC 6 (#50006) were purchased from BPS Bioscience.
(§4) HDAC4, HDAC8 and HDAC11 were produced in house as previously described.7- 9 The enzymes were pre-incubated with serial dilutions of the compounds for 1 hour at 30 °C in either assay buffer (25 mM Tris-HCl, 75 mM KCl and 0.001% (v/v) Pluronic F -127, pH 8.0) or MAL buffer (137 m M NaCl, 50 mM Tris-HCl, 2.7 mM KCl, 1 mM MgCl₂, 0 .5 mg/ml bovine serum albumin (BSA), pH 8.0b) for HDAC11. The enzyme reaction was initiated by the addition of the following substrates: 20 µM Boc-L ys(T FA) -AMC for HDAC4 and HDAC8; 80 µM Boc-L ys(T FA) -AMC for HDAC11; and 50 µM Boc -Lys(Ac)-AMC for HDAC1 and HDAC6. After an incubation period of 60 minutes, the reaction was terminated by the addition of 1.7 µM 9,9,9-trifluoro-8-oxo-N -phenyl -nonanamide (SATFMK) for […]
(§5) HDAC6, and 1 µM 1,1-dimethyl -2-[5-(trifluoromethyl)pyrazin-2-yl]isoindoline -4-carbohydroxamic acid (FT895) for HDAC11. The deacetylated substrate was then cleaved into fluorescent 7-amino -4- methylcoumarin (AMC) by the addition of 0.42 mg/mL trypsin.
(§6) Measurements were performed using a PHERAstar FS fluorescence microplate reader (BMG LABTECH) with excitation at 360 nm and emission at 460 nm. The normalised enzyme activities were plotted against the respective ligand concentration and fitted with a four-parameter logistic function using GraphPad Prism 6 software.

A further experiment addresses T2, HDAC1 (Homo sapiens, UniProt Q13547).
T2 construct: purchased BPS Bioscience 50051
As to the kind of experiment: HDAC1 fluorometric enzyme inhibition assay, purified enzyme. The note with it: Table 2; purified enzyme ~1 nM. On the procedure:
as §1, §2, §3, §4, §5, §6

The target in the next experiment is T3, HDAC8 (Homo sapiens, UniProt Q9BY41).
T3 construct: made in house
T3 sequence (Q9BY41 1-377): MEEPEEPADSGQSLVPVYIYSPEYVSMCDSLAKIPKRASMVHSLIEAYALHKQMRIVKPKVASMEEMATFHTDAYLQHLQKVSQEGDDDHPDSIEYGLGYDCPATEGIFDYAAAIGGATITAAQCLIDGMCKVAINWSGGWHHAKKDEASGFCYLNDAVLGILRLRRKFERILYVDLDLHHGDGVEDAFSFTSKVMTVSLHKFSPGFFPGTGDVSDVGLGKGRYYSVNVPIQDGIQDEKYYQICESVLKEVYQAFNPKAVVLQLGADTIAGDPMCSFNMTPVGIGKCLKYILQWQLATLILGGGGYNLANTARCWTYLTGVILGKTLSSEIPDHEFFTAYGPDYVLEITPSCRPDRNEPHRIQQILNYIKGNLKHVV
Nature of the experiment: HDAC8 fluorometric enzyme inhibition assay, purified recombinant enzyme, 10-point dose-response. The note with it: for IC50: Table 1, purified recombinant HDAC8 10 nM, mean of three independent experiments, >35 µM = weak inhibitor; for IC50 (HDAC4)/IC50 (HDAC8): selectivity ratio HDAC8 over HDAC4. The method, then: as §1, §2, §3, §4, §5, §6

In another experiment the target is T4, HDAC11 (Homo sapiens, UniProt Q96DB2).
T4 construct: made in house
T4 sequence (Q96DB2 1-347): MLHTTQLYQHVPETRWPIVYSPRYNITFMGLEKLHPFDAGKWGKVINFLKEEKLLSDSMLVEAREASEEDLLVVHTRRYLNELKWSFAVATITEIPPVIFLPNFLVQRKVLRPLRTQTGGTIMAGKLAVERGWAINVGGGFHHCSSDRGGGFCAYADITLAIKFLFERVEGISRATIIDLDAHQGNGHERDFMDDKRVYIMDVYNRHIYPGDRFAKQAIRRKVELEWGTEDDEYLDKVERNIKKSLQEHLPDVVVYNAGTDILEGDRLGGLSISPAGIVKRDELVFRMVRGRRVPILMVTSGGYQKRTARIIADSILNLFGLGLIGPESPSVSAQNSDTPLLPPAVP
As to the kind of experiment: HDAC11 fluorometric enzyme inhibition assay, purified enzyme. As to conditions: Table 2; purified enzyme ~1 nM. The method, then: as §1, §2, §3, §4, §5, §6

In a further experiment the target is T5, HDAC6 (Homo sapiens, UniProt Q9UBN7).
T5 construct: purchased BPS Bioscience 50006
T5 sequence (Q9UBN7 1-1215): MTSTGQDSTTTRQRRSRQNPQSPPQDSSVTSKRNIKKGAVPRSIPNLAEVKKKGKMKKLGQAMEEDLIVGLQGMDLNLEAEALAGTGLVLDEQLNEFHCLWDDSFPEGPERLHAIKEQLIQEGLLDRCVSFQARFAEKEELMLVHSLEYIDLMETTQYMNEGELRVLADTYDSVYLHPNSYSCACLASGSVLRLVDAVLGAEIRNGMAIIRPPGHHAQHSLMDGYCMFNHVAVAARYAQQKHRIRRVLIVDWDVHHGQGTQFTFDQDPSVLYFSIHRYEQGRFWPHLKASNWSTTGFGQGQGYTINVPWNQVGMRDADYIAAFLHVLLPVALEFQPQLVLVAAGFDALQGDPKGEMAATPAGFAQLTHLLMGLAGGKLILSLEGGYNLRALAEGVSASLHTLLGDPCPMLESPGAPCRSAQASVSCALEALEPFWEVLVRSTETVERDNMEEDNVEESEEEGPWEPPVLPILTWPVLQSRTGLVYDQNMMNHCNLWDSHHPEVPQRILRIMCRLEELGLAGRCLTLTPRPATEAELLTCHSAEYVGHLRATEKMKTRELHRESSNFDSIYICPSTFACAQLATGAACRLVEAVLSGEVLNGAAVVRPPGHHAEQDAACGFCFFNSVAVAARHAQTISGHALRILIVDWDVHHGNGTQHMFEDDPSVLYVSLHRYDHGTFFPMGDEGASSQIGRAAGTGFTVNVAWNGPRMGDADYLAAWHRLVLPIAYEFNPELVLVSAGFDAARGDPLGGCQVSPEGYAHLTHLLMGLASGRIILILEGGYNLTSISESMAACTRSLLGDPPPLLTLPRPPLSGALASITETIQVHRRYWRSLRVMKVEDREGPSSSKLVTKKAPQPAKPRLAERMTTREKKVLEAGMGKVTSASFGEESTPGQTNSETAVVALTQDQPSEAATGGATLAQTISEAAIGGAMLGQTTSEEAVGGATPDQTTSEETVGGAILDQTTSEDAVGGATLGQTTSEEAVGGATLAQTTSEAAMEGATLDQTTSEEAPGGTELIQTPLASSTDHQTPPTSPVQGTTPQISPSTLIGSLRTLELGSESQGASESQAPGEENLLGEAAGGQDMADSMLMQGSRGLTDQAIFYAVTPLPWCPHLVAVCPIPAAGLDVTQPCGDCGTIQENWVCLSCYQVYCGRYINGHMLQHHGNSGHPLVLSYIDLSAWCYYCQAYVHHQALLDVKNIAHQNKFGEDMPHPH
Nature of the experiment: HDAC6 fluorometric enzyme inhibition assay, purified enzyme. As to conditions: Table 2; purified enzyme ~1 nM. On the procedure: as §1, §2, §3, §4, §5, §6

T1 sequence (P56524 whole entry): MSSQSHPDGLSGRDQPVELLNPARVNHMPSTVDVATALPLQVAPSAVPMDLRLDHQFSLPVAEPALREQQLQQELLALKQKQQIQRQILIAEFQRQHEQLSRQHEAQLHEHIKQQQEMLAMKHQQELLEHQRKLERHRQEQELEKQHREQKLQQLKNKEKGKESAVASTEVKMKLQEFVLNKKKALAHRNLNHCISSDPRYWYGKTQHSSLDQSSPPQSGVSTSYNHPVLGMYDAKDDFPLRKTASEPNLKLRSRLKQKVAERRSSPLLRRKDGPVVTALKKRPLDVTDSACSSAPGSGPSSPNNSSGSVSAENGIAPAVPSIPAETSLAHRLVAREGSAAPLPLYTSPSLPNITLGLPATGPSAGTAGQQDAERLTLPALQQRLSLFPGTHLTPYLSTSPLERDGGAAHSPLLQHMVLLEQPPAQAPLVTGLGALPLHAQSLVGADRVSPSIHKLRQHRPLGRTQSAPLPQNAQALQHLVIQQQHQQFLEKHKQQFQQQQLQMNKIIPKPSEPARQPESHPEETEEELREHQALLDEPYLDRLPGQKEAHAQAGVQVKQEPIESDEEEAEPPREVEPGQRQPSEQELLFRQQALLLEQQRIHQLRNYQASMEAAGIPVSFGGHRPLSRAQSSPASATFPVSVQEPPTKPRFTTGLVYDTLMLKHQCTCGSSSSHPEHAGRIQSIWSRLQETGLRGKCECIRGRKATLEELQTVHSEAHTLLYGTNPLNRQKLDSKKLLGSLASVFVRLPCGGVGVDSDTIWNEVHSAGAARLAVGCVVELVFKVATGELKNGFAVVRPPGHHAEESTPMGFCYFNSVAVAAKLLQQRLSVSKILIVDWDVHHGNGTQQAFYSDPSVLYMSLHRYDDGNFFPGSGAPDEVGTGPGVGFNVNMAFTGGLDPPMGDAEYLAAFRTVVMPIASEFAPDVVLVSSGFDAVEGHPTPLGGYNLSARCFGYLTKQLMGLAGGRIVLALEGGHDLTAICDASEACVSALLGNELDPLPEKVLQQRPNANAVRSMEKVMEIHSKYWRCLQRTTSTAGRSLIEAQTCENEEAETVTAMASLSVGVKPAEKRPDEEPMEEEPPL
T2 sequence (Q13547 whole entry): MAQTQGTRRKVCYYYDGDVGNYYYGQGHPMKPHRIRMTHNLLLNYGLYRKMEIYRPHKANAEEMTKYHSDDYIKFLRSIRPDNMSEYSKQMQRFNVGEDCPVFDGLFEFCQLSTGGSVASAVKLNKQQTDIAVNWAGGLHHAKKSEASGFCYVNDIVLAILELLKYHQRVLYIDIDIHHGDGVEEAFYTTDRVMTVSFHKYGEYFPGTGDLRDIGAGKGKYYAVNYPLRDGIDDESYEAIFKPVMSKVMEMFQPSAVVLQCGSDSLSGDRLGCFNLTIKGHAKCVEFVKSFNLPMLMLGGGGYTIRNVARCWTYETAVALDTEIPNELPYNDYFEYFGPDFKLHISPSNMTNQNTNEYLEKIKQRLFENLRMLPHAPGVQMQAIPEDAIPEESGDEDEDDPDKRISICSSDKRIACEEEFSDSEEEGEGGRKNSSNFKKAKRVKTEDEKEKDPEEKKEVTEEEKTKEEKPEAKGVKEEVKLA

Take `O=c1c(NCc2ccccc2)c(NCc2ccccc2)c1=O` [Compound 13b]: the IC50 on HDAC4 was 4.6 ± 0.9 µM; at HDAC1, 8.3 ± 3.6 µM; on HDAC8, 1.8 ± 0.7 µM; against HDAC11, > 35 µM; at HDAC6, 6.1 ± 3.5 µM. For the same compound, the “IC50 (HDAC4)/IC50 (HDAC8)” value on HDAC8 is 2.6.

For the compound `CCOc1c(Nc2ccc(F)cc2)c(=O)c1=O` [Compound 9b], the IC50 was 8.5 ± 5.3 µM on HDAC4; 7 ± 2.7 µM at HDAC1; 1.2 ± 0.03 µM on HDAC8; 25 ± 8 µM against HDAC11; 2.3 ± 1.6 µM against HDAC6. The “IC50 (HDAC4)/IC50 (HDAC8)” value at HDAC8 is reported as 7.1.

For `CN(Cc1ccccc1)c1c(N(C)Cc2ccccc2)c(=O)c1=O` [Compound 14b], the IC50 at HDAC4 is 14 ± 3 µM; on HDAC1, 17 ± 16 µM; on HDAC8, 1.3 ± 0.2 µM; at HDAC11, > 35 µM; against HDAC6 it was 6.9 ± 2.5 µM. Moreover, the “IC50 (HDAC4)/IC50 (HDAC8)” value at HDAC8 amounted to 10.8.

In the case of `O=c1c(Nc2ccc(Br)cc2)c(Nc2ccc(Br)cc2)c1=O` [Compound 13c], the IC50 on HDAC4 is 11 ± 4 µM; against HDAC1, 8.1 ± 4.3 µM; on HDAC8, 2 ± 1 µM; on HDAC11, > 35 µM; against HDAC6, 2.9 ± 1.3 µM. Further, on HDAC8, the “IC50 (HDAC4)/IC50 (HDAC8)” value is listed as 5.5.
